According to the Kinase Knowledgebase extract (Sharma et al. 2016):

target: PIK3CA (human) (UniProt P42336); assay: Inhibition of PIK3CA Kinase Activity
Sequence (P42336 whole entry, looked up): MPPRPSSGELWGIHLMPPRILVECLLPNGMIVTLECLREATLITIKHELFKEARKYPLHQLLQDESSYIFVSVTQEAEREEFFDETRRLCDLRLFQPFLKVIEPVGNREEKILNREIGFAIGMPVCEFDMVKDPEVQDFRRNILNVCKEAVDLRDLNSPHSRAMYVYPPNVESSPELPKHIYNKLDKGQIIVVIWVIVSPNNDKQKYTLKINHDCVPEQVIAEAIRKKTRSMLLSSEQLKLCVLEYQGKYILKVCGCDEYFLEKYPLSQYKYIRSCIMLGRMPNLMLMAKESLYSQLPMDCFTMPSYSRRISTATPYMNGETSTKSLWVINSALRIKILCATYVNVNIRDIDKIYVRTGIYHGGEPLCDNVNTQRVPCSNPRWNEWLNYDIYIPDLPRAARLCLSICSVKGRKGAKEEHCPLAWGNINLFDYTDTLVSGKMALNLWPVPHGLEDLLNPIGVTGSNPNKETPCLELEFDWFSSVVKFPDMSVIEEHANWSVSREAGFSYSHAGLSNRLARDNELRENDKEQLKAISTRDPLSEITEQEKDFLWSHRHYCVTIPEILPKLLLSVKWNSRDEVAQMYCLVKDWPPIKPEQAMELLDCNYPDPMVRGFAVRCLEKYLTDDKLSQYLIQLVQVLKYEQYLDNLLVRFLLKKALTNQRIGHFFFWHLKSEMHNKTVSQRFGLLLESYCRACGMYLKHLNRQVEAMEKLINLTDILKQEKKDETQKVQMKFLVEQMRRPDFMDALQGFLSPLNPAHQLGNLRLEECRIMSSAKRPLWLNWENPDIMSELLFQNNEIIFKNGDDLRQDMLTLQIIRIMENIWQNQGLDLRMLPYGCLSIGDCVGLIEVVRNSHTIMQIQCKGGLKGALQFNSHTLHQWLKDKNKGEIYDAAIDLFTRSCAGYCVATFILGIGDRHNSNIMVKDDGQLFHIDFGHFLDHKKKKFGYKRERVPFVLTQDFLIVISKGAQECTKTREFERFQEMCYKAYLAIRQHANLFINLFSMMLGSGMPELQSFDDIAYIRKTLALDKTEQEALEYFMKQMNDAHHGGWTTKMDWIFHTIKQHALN

IC50, < 1000 nM:
CC1CCC(n2cnc3c(-c4cnc(N)nc4)nc(N4CCOCC4)nc32)C1 (stereo not given)
CCC(C)n1c(NC(C)C)nc2c(-c3cccc(O)c3)nc(N3CCOCC3)nc21 (stereo not given)
O=[N+]([O-])c1ccc(Cn2cnc3c(-c4cccc(O)c4)nc(N4CCOCC4)nc32)cc1
Cc1cccc(-n2cnc3c(-c4cnc(N)nc4)nc(N4CCOCC4)nc32)c1
Oc1cccc(-c2nc(N3CCOCC3)nc3c2ncn3Cc2ccccc2)c1
CC(C)C(C)n1cnc2c(-c3cccc4[nH]ccc34)nc(N3CCOCC3)nc21 (stereo not given)
CCNc1nc2c(-c3cccc(O)c3)nc(N3CCOCC3)nc2n1C(C)CC (stereo not given)
CCN(CC)CCn1cnc2c(-c3cccc(O)c3)nc(N3CCOCC3)nc21
COc1ccc(Cn2cnc3c(-c4cccc(O)c4)nc(N4CCOCC4)nc32)cc1
Oc1cccc(-c2nc(N3CCOCC3)nc3c2ncn3CCOc2ccccc2)c1
CCC(C)n1c(-c2ccccc2)nc2c(-c3cccc(O)c3)nc(N3CCOCC3)nc21 (stereo not given)
Nc1ncc(-c2nc(N3CCOCC3)nc3c2ncn3C2CCCC2)cn1
CCCCN1CCC(n2cnc3c(-c4cccc(O)c4)nc(N4CCOCC4)nc32)CC1
CCC(C)n1c(NCCN(C)C)nc2c(-c3cccc(O)c3)nc(N3CCOCC3)nc21 (stereo not given)
CC(COC(C)(C)C)n1cnc2c(-c3cnc(N)nc3)nc(N3CCOCC3)nc21 (stereo not given)
COC(=O)c1ccc(Cn2cnc3c(-c4cccc(O)c4)nc(N4CCOCC4)nc32)cc1
CC1CCC(n2cnc3c(-c4cccc(O)c4)nc(N4CCOCC4)nc32)CC1 (stereo not given)
CS(=O)(=O)N1CCN(CCn2cnc3c(-c4cccc(O)c4)nc(N4CCOCC4)nc32)CC1
Nc1ncc(-c2nc(N3CCOCC3)nc3c2ncn3C2CCc3ccccc3C2)cn1 (stereo not given)
COCC(C)n1cnc2c(-c3cnc(N)nc3C)nc(N3CCOCC3)nc21 (stereo not given)
CC(C)n1cnc2c(-c3cccc4[nH]ccc34)nc(N3CCOCC3)nc21
CCC(C)n1cnc2c(-c3cnc(N)nc3C)nc(N3CCOCC3)nc21 (stereo not given)
CC(C)Cn1cnc2c(-c3cccc(O)c3)nc(N3CCOCC3)nc21
CCC(C)n1c(S(C)(=O)=O)nc2c(-c3cccc(O)c3)nc(N3CCOCC3)nc21 (stereo not given)
CC(c1ccccc1)n1cnc2c(-c3cccc(O)c3)nc(N3CCOCC3)nc21 (stereo not given)
c1ccc(Cn2cnc3c(-c4cncnc4)nc(N4CCOCC4)nc32)cc1
CCCC(=O)N1CCC(n2cnc3c(-c4cccc5[nH]ccc45)nc(N4CCOCC4)nc32)CC1
CC(=O)Nc1ccc(Cn2cnc3c(-c4cccc(OC(C)=O)c4)nc(N4CCOCC4)nc32)cc1
CCC(CC)n1cnc2c(-c3cnc(N)nc3)nc(N3CCOCC3)nc21
c1nc2cc(-c3nc(N4CCOCC4)nc4c3ncn4CC3CC3)ccc2[nH]1
Nc1ncc(-c2nc(N3CCOCC3)nc3[nH]cnc23)cn1
COCCn1cnc2c(-c3cccc(O)c3)nc(N3CCOCC3)nc21
O=C(CCN1CCCCC1)N1CCC(n2cnc3c(-c4cccc5[nH]ccc45)nc(N4CCOCC4)nc32)CC1
Oc1cccc(-c2nc(N3CCOCC3)nc3c2ncn3Cc2cc(F)cc(F)c2)c1
CC(C)(C)OC(=O)N1CCC(n2cnc3c(-c4cnc(N)nc4)nc(N4CCOCC4)nc32)CC1
Nc1ccc(-c2nc(N3CCOCC3)nc3c2ncn3C2CCCC2)cn1
CC(C)Cn1cnc2c(-c3cccc4[nH]ccc34)nc(N3CCOCC3)nc21
CC(C)(C)OC(=O)N1CCC(n2cnc3c(-c4cccc5[nH]ccc45)nc(N4CCOCC4)nc32)C1 (stereo not given)
CCC(C#N)n1cnc2c(-c3cnc(N)nc3)nc(N3CCOCC3)nc21 (stereo not given)
O=C(Cn1cnc2c(-c3cccc(O)c3)nc(N3CCOCC3)nc21)NC1CC1
N#Cc1cccc(Cn2cnc3c(-c4cccc(O)c4)nc(N4CCOCC4)nc32)c1
CC(C)(C)OC(=O)N1CCC(n2cnc3c(-c4cccc(O)c4)nc(N4CCOCC4)nc32)CC1
COCC(C)n1cnc2c(-c3cccc4[nH]ccc34)nc(N3CCOCC3)nc21 (stereo not given)
CC(=O)Nc1ccc(Cn2cnc3c(-c4cccc(O)c4)nc(N4CCOCC4)nc32)cc1
CC(=O)Nc1cccc(Cn2cnc3c(-c4cccc(O)c4)nc(N4CCOCC4)nc32)c1
CCC(C)n1cnc2c(-c3cnc(NC)nc3)nc(N3CCOCC3)nc21 (stereo not given)
Oc1cccc(-c2nc(N3CCOCC3)nc3c2ncn3C2CCCC2)c1
CCC(C)n1c(C)nc2c(-c3cccc(O)c3)nc(N3CCOCC3)nc21 (stereo not given)
COc1cccc(Cn2cnc3c(-c4cccc(O)c4)nc(N4CCOCC4)nc32)c1
Oc1cccc(-c2nc(N3CCOCC3)nc3c2ncn3C2CCCCO2)c1 (stereo not given)
CCC(C)n1c(SC)nc2c(-c3cccc(O)c3)nc(N3CCOCC3)nc21 (stereo not given)
CCCCNc1nc2c(-c3cccc(O)c3)nc(N3CCOCC3)nc2n1C(C)CC (stereo not given)
Cc1ccc(C(=O)N2CCC(n3cnc4c(-c5cnc(N)nc5)nc(N5CCOCC5)nc43)C2)s1 (stereo not given)
CCCC(=O)N1CCC(n2cnc3c(-c4cnc(N)nc4)nc(N4CCOCC4)nc32)CC1
COCC(C)n1cnc2c(-c3cccc(O)c3)nc(N3CCOCC3)nc21 (stereo not given)
CC1CCC(n2cnc3c(-c4cnc(N)nc4)nc(N4CCOCC4)nc32)CC1 (stereo not given)
COCC(C)n1cnc2c(-c3cnc(N)nc3OC)nc(N3CCOCC3)nc21 (stereo not given)
COCC(C)n1cnc2c(-c3cnc(N)nc3)nc(N3CCOCC3)nc21 (stereo not given)
Cc1nc(N)ncc1-c1nc(N2CCOCC2)nc2c1ncn2C(C)C1CC1 (stereo not given)
CN1CCN(C(=O)Cn2cnc3c(-c4cccc(O)c4)nc(N4CCOCC4)nc32)CC1
CCC(C)n1cnc2c(-c3cnc(N)nc3)nc(N3CCOC[C@@H]3C)nc21 (stereo not given in full)
CCC(C)n1c(N(C)C)nc2c(-c3cccc(O)c3)nc(N3CCOCC3)nc21 (stereo not given)
O=C(Nc1ccc(Cl)cc1)N1CCC(n2cnc3c(-c4cccc5[nH]ccc45)nc(N4CCOCC4)nc32)CC1
Nc1cccc(Cn2cnc3c(-c4cccc(O)c4)nc(N4CCOCC4)nc32)c1
Oc1cccc(-c2nc(N3CCOCC3)nc3c2ncn3C2CCOC2)c1 (stereo not given)
